In PMC9296036, “A peptide interfering with the dimerization of oncogenic KITENIN protein and its stability suppresses colorectal tumour progression” (Clinical and Translational Medicine, 2022):
Ends that are not written are not given here.

Test: Stability of KDIP in mouse serum in vitro (LC-MS/MS)
Assay type: in vitro ADME
Details: 10 pmol KDIP spiked to 10 μl serum, room temperature, 0-160 min (7 times), LC-MS/MS MRM, n=3 per time
Description: Experiment for stability in serum was conducted with seven different incubation time (0, 5, 10, 20, 40, 80, 160 min). KDIP 10 pmol was spiked to 10 μl of serum, and samples were incubated at room temperature. Samples for each incubation time were triplicated.
Peptide extraction from serum or tissue lysate was performed by solid‐phase extraction using Oasis HLB Cartridge 1‐cm^3 (30 mg). HLB cartridges were conditioned using ACN (1 ml) and 50% ACN, .5% FA (1 ml), followed by equilibration using .5% FA (2 ml). A volume of 10‐μl serum and 20 μl of tissue lysate were added by .5% FA to be 1 ml and were loaded on equilibrated cartridges. […]
Each sample was analysed using an Agilent 1100 Series high‐performance liquid chromatography pump (Agilent Technologies, USA) coupled to an LTQ linear ion trap mass spectrometer (Thermo Finnigan, USA). […] Peptide was quantified by multiple reaction monitoring (MRM) in positive ion mode, with a spray voltage of 2.3 kV. […] Furthermore, truncated forms ([…], […]) of KDIP that were detected during stability test were also analysed by following transitions: 468.5 → 404.8 (b16 ^+5), 468.5 → 444.85 (b18 ^+5), 468.5 → 505.7 (b16 ^+4), 468.5 → 551.35 (b18 + H2O^+4), 468.5 → 555.7 (b18 ^+4), 528.45 → 448.85 (b14 ^+4), 528.45 → 499.0 (b16 ^+4), 528.45 → 598.15 (b14 ^+3), 528.45 → 659.25 (b16 + H2O^+3) and 528.45 → 664.95 (b16 ^+3). […]

terminal half-life in mouse serum in vitro: 30.86 min
Sequence: YARVRRRGPRRWRLVSDEAV [KDIP]
